Holding throughout (format): in vivo
Test [1] concerns Plasmopara viticola. The experiment in a line: TEST E: preventive spray on grape seedlings, grape downy mildew, disease rating.
In test [2] the test system is Plasmopara viticola. Briefly: TEST G: curative spray on inoculated grape seedlings, grape downy mildew, disease rating. Conditions: for curative utility: curative (post-infection) use, especially for grape downy mildew, statement in words; for Test G disease control rating (grape downy mildew, curative): curative spray on inoculated grape seedlings.
The test system of a further test is Pyricularia oryzae. Conditions: preventive spray on rice seedlings; 100 = 100% disease control, 0 = no control; concentration not marked in table.
Test [3] deals with Phytophthora infestans. Particulars: preventive spray on tomato seedlings; 100 = 100% disease control, 0 = no control; concentration not marked in table.
The test system of a further test is Puccinia recondita. The experiment in a line: TEST B: preventive spray on wheat seedlings, wheat leaf rust, disease rating. Conditions: 100 = 100% disease control, 0 = no control, concentration not marked in table.
Test [4] relates to Erysiphe graminis f. sp. tritici. Briefly: TEST A: preventive spray on wheat seedlings, wheat powdery mildew, disease rating. Conditions: 100 = 100% disease control, 0 = no control relative to controls, concentration not marked in table.
Test [5] has as its system Phytophthora infestans. Conditions: curative spray; 100 ppm on potato seedlings.
Setting [6] is: 100 = 100% disease control, 0 = no control, concentration not marked in table.
Where [7] appears, read: concentration not marked in table.

Marks after values point to notes of the source that are not given here.

In the case of `CC(NC(=O)c1c(Cl)ccnc1Cl)c1ncc(C(F)(F)F)cc1Cl` (racemic) [Compound 30], the “Test E disease control rating (grape downy mildew)” value (from here on “Test E disease control rating”) in the test with Plasmopara viticola [1] (setting [6]) is 100%. Further, the curative utility entry in the test with Plasmopara viticola [2] was “significant curative utility”. Moreover, the “Test G disease control rating (grape downy mildew, curative)” value (“Test G disease control rating” below) with Plasmopara viticola [2] (100 ppm) is reported as 100* %. Further, the “Test C disease control rating (rice blast)” value (shortened to “Test C disease control rating”) with Pyricularia oryzae was determined as 0%. The “Test D disease control rating (potato and tomato late blight)” value (“Test D disease control rating” for short) in the test with Phytophthora infestans [3] is 100%.

`CC(NC(=O)c1c(Cl)ccnc1Cl)c1ncc(Cl)cc1Cl` (racemic) [Compound 36]: the “Test E disease control rating” value with Plasmopara viticola [1] (setting [6]) is on record as 100%. Moreover, the “Test B disease control rating (wheat leaf rust)” value (“Test B disease control rating” for short) in the test with Puccinia recondita came to 38%. In addition, the curative utility result in the test with Plasmopara viticola [2] was “significant curative utility”. In addition, in the test with Plasmopara viticola [2] (setting [7]), the “Test G disease control rating” value came out at 100%. Besides, in the test on Pyricularia oryzae, the “Test C disease control rating” value was found to be 0%. The “Test D disease control rating” value in the test with Phytophthora infestans [3] is recorded as 100%. For the same molecule, in test [4], the “Test A disease control rating (wheat powdery mildew)” value (shortened to “Test A disease control rating”) is given as 0%.

Regarding `CC(NC(=O)c1c(Cl)ccnc1Cl)c1ncc(Br)cc1Cl` (racemic) [Compound 37], in the test on Plasmopara viticola [1] (setting [6]), the “Test E disease control rating” value amounted to 100%. Moreover, in the test on Puccinia recondita, the “Test B disease control rating” value is 19%. Besides, in the test on Plasmopara viticola [2], the curative utility result was “significant curative utility”. Further, the “Test G disease control rating” value in the test with Plasmopara viticola [2] (setting [7]) amounted to 100%. The “Test C disease control rating” value with Pyricularia oryzae is 0%. Further, the “Test D disease control rating” value with Phytophthora infestans [3] worked out at 100%. In addition, in test [4], the “Test A disease control rating” value is 0%.

Consider `CC(NC(=O)c1c(Cl)ccnc1Cl)c1ncc(C(F)(F)F)cc1Cl` (single isomer, unassigned) [Cmpd 38], for which the “Test E disease control rating” value with Plasmopara viticola [1] (100 ppm) was 69* %. Further, the “Test G disease control rating” value in the test on Plasmopara viticola [2] (20 ppm) is listed as 0** %.

Regarding `O=C(NCc1ncc(C(F)(F)F)cc1Cl)c1cncc(C#Cc2ccccc2)c1` [Cmpd 17], the “Test E disease control rating” value with Plasmopara viticola [1] (setting [6]) came out at 0%. Besides, in the test with Puccinia recondita, the “Test B disease control rating” value is recorded as 0%. Further, the “Test C disease control rating” value in the test on Pyricularia oryzae stood at 0%. Also, the “Test D disease control rating” value in the test on Phytophthora infestans [3] is 25%. Besides, the “Test A disease control rating” value in test [4] is 13%.

Turning to `O=C(NCc1ncc(C(F)(F)F)cc1Cl)c1ccc(C(F)(F)F)nc1Br` [Cmpd 18], in the test with Plasmopara viticola [1] (setting [6]), the “Test E disease control rating” value is 0%. Further, the “Test B disease control rating” value in the test with Puccinia recondita is recorded as 9%. For the same molecule, in the test on Pyricularia oryzae, the “Test C disease control rating” value is 80%. Besides, the “Test D disease control rating” value in the test with Phytophthora infestans [3] worked out at 32%. Further, in test [4], the “Test A disease control rating” value is recorded as 0%.

`Cc1ccc(C(=O)NCc2ncc(C(F)(F)F)cc2Cl)c(O)n1` [Cmpd 19]: the “Test E disease control rating” value with Plasmopara viticola [1] (setting [6]) is listed as 8%. For the same molecule, the “Test B disease control rating” value in the test on Puccinia recondita came out at 9%. The “Test C disease control rating” value in the test on Pyricularia oryzae turned out to be 0%. In addition, the “Test D disease control rating” value with Phytophthora infestans [3] amounted to 7%. For the same molecule, the “Test A disease control rating” value in test [4] amounted to 0%.

Consider `Cc1nc(C(F)(F)F)ccc1C(=O)NCc1ncc(C(F)(F)F)cc1Cl` [Cmpd 20], for which the “Test E disease control rating” value with Plasmopara viticola [1] (setting [6]) amounted to 8%. For the same molecule, the “Test B disease control rating” value with Puccinia recondita came to 28%. Moreover, in the test on Pyricularia oryzae, the “Test C disease control rating” value was found to be 87%. In addition, the “Test D disease control rating” value with Phytophthora infestans [3] came out at 25%. Besides, the “Test A disease control rating” value in test [4] came to 0%.

As for `Cc1nc(C(F)(F)C(F)(F)F)ccc1C(=O)NCc1ncc(C(F)(F)F)cc1Cl` [Cmpd 21], the “Test E disease control rating” value in the test on Plasmopara viticola [1] (setting [6]) was found to be 8%. The “Test B disease control rating” value in the test with Puccinia recondita amounted to 68%. For the same molecule, the “Test C disease control rating” value with Pyricularia oryzae was determined as 88%. The “Test D disease control rating” value in the test on Phytophthora infestans [3] was 16%. Besides, the “Test A disease control rating” value in test [4] is given as 69%.

With `COc1nc(C(F)(F)F)ccc1C(=O)NCc1ncc(C(F)(F)F)cc1Cl` [Cmpd 22], the “Test E disease control rating” value with Plasmopara viticola [1] (setting [6]) came out at 0%. The “Test B disease control rating” value with Puccinia recondita turned out to be 0%. Besides, the “Test C disease control rating” value in the test with Pyricularia oryzae came to 0%. In addition, in the test on Phytophthora infestans [3], the “Test D disease control rating” value is listed as 7%. In addition, the “Test A disease control rating” value in test [4] amounted to 0%.

Turning to `COCc1nc(C(F)(F)F)ccc1C(=O)NCc1ncc(C(F)(F)F)cc1Cl` [Cmpd 23], in the test with Plasmopara viticola [1] (setting [6]), the “Test E disease control rating” value is reported as 8%. Further, the “Test B disease control rating” value in the test with Puccinia recondita stood at 9%. In addition, in the test on Pyricularia oryzae, the “Test C disease control rating” value was 7%. For the same molecule, the “Test D disease control rating” value in the test with Phytophthora infestans [3] worked out at 32%. Also, the “Test A disease control rating” value in test [4] is 72%.

With `O=C(NCc1ncc(C(F)(F)F)cc1Cl)c1ccc(C(F)(F)F)nc1-c1ccccc1` [Cmpd 24], in the test on Plasmopara viticola [1] (setting [6]), the “Test E disease control rating” value amounted to 8%. The “Test B disease control rating” value with Puccinia recondita is reported as 0%. In addition, in the test with Pyricularia oryzae, the “Test C disease control rating” value is recorded as 7%. Further, the “Test D disease control rating” value with Phytophthora infestans [3] was 25%. The “Test A disease control rating” value in test [4] came to 0%.

With `Cc1nc(Cl)ccc1C(=O)NCc1ncc(C(F)(F)F)cc1Cl` [Cmpd 25], in the test on Plasmopara viticola [1] (setting [6]), the “Test E disease control rating” value came out at 16%. In the test on Puccinia recondita, the “Test B disease control rating” value stood at 9%. The “Test C disease control rating” value with Pyricularia oryzae is 13%. For the same molecule, the “Test D disease control rating” value in the test with Phytophthora infestans [3] is 79%. Also, in test [4], the “Test A disease control rating” value is given as 0%.

`O=C(NCc1ncc(C(F)(F)F)cc1Cl)c1ccc(C(F)(F)F)nc1` [Cmpd 26]: the “Test E disease control rating” value in the test with Plasmopara viticola [1] (setting [6]) is 0%. Further, the “Test B disease control rating” value in the test with Puccinia recondita is 32%. Besides, in the test with Pyricularia oryzae, the “Test C disease control rating” value was 0%. Besides, the “Test D disease control rating” value in the test with Phytophthora infestans [3] came to 25%. Also, the “Test A disease control rating” value in test [4] was 0%.

`O=C(NCc1ncc(C(F)(F)F)cc1Cl)c1cccnc1Nc1cccc(C(F)(F)F)c1` [Cmpd 27]: the “Test E disease control rating” value in the test with Plasmopara viticola [1] (setting [6]) stood at 16%. Also, the “Test B disease control rating” value in the test with Puccinia recondita turned out to be 0%. In the test with Pyricularia oryzae, the “Test C disease control rating” value worked out at 0%. Moreover, the “Test D disease control rating” value with Phytophthora infestans [3] is given as 32%. Moreover, the “Test A disease control rating” value in test [4] is 0%.

Turning to `Cc1cnc(C(=O)NCc2ncc(C(F)(F)F)cc2Cl)c(Cl)c1` [Compound 2], the curative utility entry with Plasmopara viticola [2] is “significant curative utility”. In addition, the “Test G disease control rating” value in the test on Plasmopara viticola [2] (setting [7]) is reported as 99%. Further, the “Test D disease control rating” value in the test with Phytophthora infestans [3] was 100%. Besides, the “Test A disease control rating” value in test [4] is listed as 0%.

Take `O=C(NCc1ncc(C(F)(F)F)cc1Cl)c1cccnc1Cl` [Compound 5]: the “Test E disease control rating” value with Plasmopara viticola [1] (setting [6]) stood at 98%. In addition, the “Test B disease control rating” value with Puccinia recondita is 19%. For the same molecule, the curative utility result in the test with Plasmopara viticola [2] is on record as “significant curative utility”. In addition, the “Test G disease control rating” value in the test on Plasmopara viticola [2] (setting [7]) amounted to 99%.

For the molecule `Cc1cc(Cl)c(C(=O)NCc2ncc(C(F)(F)F)cc2Cl)c(Cl)n1` [Compound 8, 2,4-Dichloro-N-[[3-chloro-5-(trifluoromethyl)-2-pyridinyl]methyl]-6-methyl-3-pyridinecarboxamide], the “Test E disease control rating” value with Plasmopara viticola [1] (setting [6]) is listed as 100%. In addition, the “Test B disease control rating” value with Puccinia recondita came to 8%. Further, the curative utility result with Plasmopara viticola [2] is “significant curative utility”. Moreover, in the test on Plasmopara viticola [2] (setting [7]), the “Test G disease control rating” value is recorded as 96%. Further, in the test with Phytophthora infestans [3], the “Test D disease control rating” value amounted to 100%. The “Test A disease control rating” value in test [4] amounted to 0%.

Consider `O=C(NCc1ncc(C(F)(F)F)cc1Cl)c1c(Cl)ccnc1Cl` [Compound 28], for which the “Test F disease control rating (late blight, curative)” value with Phytophthora infestans [5] was 97# %. For the same molecule, the “Test E disease control rating” value in the test with Plasmopara viticola [1] (setting [6]) amounted to 100%. The curative utility result in the test with Plasmopara viticola [2] is “significant curative utility”. In addition, in the test with Plasmopara viticola [2] (100 ppm), the “Test G disease control rating” value is reported as 37* %. Further, in the test on Pyricularia oryzae, the “Test C disease control rating” value came to 0%. Further, the “Test D disease control rating” value in the test with Phytophthora infestans [3] came out at 100%.

With `Cc1cnc(Cl)c(C(=O)NCc2ncc(C(F)(F)F)cc2Cl)c1Cl` [Compound 29], the “Test E disease control rating” value in the test on Plasmopara viticola [1] (setting [6]) is listed as 100%. Moreover, the curative utility entry in the test on Plasmopara viticola [2] is “significant curative utility”. For the same molecule, the “Test G disease control rating” value with Plasmopara viticola [2] (100 ppm) is given as 100* %. In the test on Pyricularia oryzae, the “Test C disease control rating” value stood at 0%. Moreover, the “Test D disease control rating” value with Phytophthora infestans [3] is reported as 100%.

For `C[C@@H](NC(=O)c1c(Cl)ccnc1Cl)c1ncc(C(F)(F)F)cc1Cl` [Compound 31, 2,4-dichloro-N-[(1R)-1-[3-chloro-5-(trifluoromethyl)-2-pyridinyl]ethyl]-3-pyridinecarboxamide], the “Test E disease control rating” value in the test with Plasmopara viticola [1] (setting [6]) was 100%. In addition, in the test on Plasmopara viticola [2], the curative utility entry is listed as “significant curative utility”. In addition, the “Test G disease control rating” value in the test with Plasmopara viticola [2] (20 ppm) is 100** %. Moreover, the “Test C disease control rating” value in the test on Pyricularia oryzae amounted to 0%. Besides, the “Test D disease control rating” value in the test with Phytophthora infestans [3] is listed as 100%.

For the molecule `O=C(NCc1ncc(C(F)(F)F)cc1Cl)c1c(Cl)cncc1Cl` [Compound 35], the “Test E disease control rating” value in the test on Plasmopara viticola [1] (setting [6]) stood at 100%. Moreover, the “Test B disease control rating” value in the test on Puccinia recondita worked out at 30%. Moreover, the curative utility result in the test with Plasmopara viticola [2] is listed as “significant curative utility”. In addition, the “Test G disease control rating” value in the test on Plasmopara viticola [2] (100 ppm) is 100* %. The “Test D disease control rating” value in the test on Phytophthora infestans [3] came to 100%. In addition, the “Test A disease control rating” value in test [4] was 0%.
